# Target: T1, MEK1^CA (human GST-MEK1, constitutively active, Ser218Asp and Ser222Asp) (Homo sapiens, UniProt Q02750, S218D/S222D)
# T1 construct: GST; made in house; host or cells: Escherichia coli
# Assay: MEK1 enzymatic activity assay (MEK1^CA / ERK2 / MBP, [γ-33P]ATP incorporation)
# Assay type: biochemical
# Conditions: Table 1, compounds of formula I; read-out: Avg IC50
# In short: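 Cascade assay: 25 µl reactions with 0.002 nmol E. coli-expressed GST-MEK1 S218D/S222D, 0.02 nmol His-tagged mouse ERK2, 0.25 nmol MBP, 0.25 nmol unlabeled ATP and 0.1 µCi [γ-33P]ATP. Compound preincubated 30 min at ambient temperature with MEK1/ERK2; stopped with TCA, 33P-labelled protein filter-captured and scintillation-counted.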
# T1 sequence (Q02750 whole entry S218D/S222D): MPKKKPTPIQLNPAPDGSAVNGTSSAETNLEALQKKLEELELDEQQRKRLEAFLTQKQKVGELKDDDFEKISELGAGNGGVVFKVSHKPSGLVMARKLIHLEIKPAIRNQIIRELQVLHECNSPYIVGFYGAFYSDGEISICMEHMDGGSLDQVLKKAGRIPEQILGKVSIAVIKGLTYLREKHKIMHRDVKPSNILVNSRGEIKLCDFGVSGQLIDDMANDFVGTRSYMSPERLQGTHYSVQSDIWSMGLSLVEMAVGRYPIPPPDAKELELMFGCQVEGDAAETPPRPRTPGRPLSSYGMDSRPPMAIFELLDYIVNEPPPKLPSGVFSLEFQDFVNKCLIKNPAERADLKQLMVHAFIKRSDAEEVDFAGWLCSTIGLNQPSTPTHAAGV
row,SMILES,IC50 [nM]
1,CC(C)NC(=N)c1c(O)nsc1Nc1ccc(Oc2ccc(F)cc2F)c(F)c1 [compound 398],100 to 500
2,CC(C)NC(=N)c1c(O)nsc1Nc1ccc(Oc2ccc(F)cc2Cl)cc1C(F)(F)F [compound 407],1 to 100
3,CC(CO)NC(=N)c1c(O)nsc1Nc1ccc(Oc2ccc(F)cc2Cl)cc1C(F)(F)F (stereo not drawn) [compound 408],1 to 100
4,CCOC(=O)c1cccc(Oc2ccc(Nc3snc(O)c3C(=N)NC(C)C)cc2)c1 [compound 410],1 to 100
5,N=C(NCCN1CCNCC1)c1c(O)nsc1Nc1ccc(Oc2cc(F)cc(F)c2)cc1 [compound 412],1 to 100
6,N=C(NCCN1CCOCC1)c1c(O)nsc1Nc1ccc(Oc2cc(F)cc(F)c2)cc1 [compound 413],100 to 500
7,N=C(c1c(O)nsc1Nc1ccc(Oc2cc(F)cc(F)c2)cc1)N1CCCCC1 [compound 417],> 500
8,CN1CCN(C(=N)c2c(O)nsc2Nc2ccc(Oc3cc(F)cc(F)c3)cc2)CC1 [compound 419],> 500
9,N=C(c1c(O)nsc1Nc1ccc(Oc2cc(F)cc(F)c2)cc1)N1CCOCC1 [compound 420],> 500
10,CN(C)CCNC(=N)c1c(O)nsc1Nc1ccc(Oc2ccc(Cl)cc2Cl)cc1 [compound 425],100 to 500
11,N=C(NCCN1CCOCC1)c1c(O)nsc1Nc1ccc(Oc2ccc(Cl)cc2Cl)cc1 [compound 426],1 to 100
12,N=C(c1c(O)nsc1Nc1ccc(Oc2ccc(Cl)cc2Cl)cc1)N1CCCCC1 [compound 427],> 500
13,N=C(NCCN1CCNCC1)c1c(O)nsc1Nc1ccc(Oc2ccc(Cl)cc2Cl)cc1 [compound 428],100 to 500
14,CC(C)NC(=N)c1c(O)nsc1Nc1ccc(Oc2cccc(F)c2F)nc1 [compound 429],100 to 500
15,CC(C)NC(=N)c1c(O)nsc1Nc1ccc(Oc2cccc(C(F)(F)F)c2)nc1 [compound 430],100 to 500
16,CC(C)NC(=N)c1c(O)nsc1Nc1ccc(Oc2cc(Cl)ccc2Cl)nc1 [compound 431],1 to 100
17,CC(CO)NC(=N)c1c(O)nsc1Nc1ccc(Oc2cccc(F)c2F)nc1 (stereo not drawn) [compound 432],100 to 500
18,CC(CO)NC(=N)c1c(O)nsc1Nc1ccc(Oc2cccc(C(F)(F)F)c2)nc1 (stereo not drawn) [compound 433],1 to 100
19,CC(CO)NC(=N)c1c(O)nsc1Nc1ccc(Oc2cc(Cl)ccc2Cl)nc1 (stereo not drawn) [compound 434],1 to 100
20,CC(CO)NC(=N)c1c(O)nsc1Nc1ccccc1Oc1ccccc1 (stereo not drawn) [compound 439],> 500
21,N=C(NCC1CCCCC1)c1c(O)nsc1Nc1ccc(Oc2cc(Cl)ccc2Cl)cc1 [compound 441],1 to 100
22,CN(C)CCNC(=N)c1c(O)nsc1Nc1ccc(Oc2cc(Cl)ccc2Cl)cc1 [compound 443],1 to 100
23,N=C(NCc1ccccn1)c1c(O)nsc1Nc1ccc(Oc2cc(Cl)ccc2Cl)cc1 [compound 448],1 to 100
24,N=C(NN1CCCCC1)c1c(O)nsc1Nc1ccc(Oc2cc(Cl)ccc2Cl)cc1 [compound 449],1 to 100
25,N=C(NO)c1c(O)nsc1Nc1ccc(Oc2cc(Cl)ccc2Cl)cc1 [compound 450],1 to 100

row,SMILES,IC50 [nM]
1,N=C(NCc1ccccc1)c1c(O)nsc1Nc1ccc(Oc2cc(Cl)ccc2Cl)cc1 [compound 454],1 to 100
2,CC(C)N(O)C(=N)c1c(O)nsc1Nc1ccc(Oc2cc(Cl)ccc2Cl)cc1 [compound 455],1 to 100
3,CC(C)NC(=N)c1c(O)nsc1Nc1ccccc1Oc1ccccc1 [compound 456],100 to 500
4,Cc1cc(Oc2ccc(F)cc2Cl)ccc1Nc1snc(O)c1C(=N)N(O)Cc1ccccc1 [compound 463],1 to 100
5,CC(C)NC(=N)c1c(O)nsc1Nc1cc(F)c(Oc2cc(Cl)ccc2Cl)cc1F [compound 475],1 to 100
6,CC(CO)NC(=N)c1c(O)nsc1Nc1cc(F)c(Oc2cc(Cl)ccc2Cl)cc1F (stereo not drawn) [compound 476],1 to 100
7,N=C(NCC(O)CO)c1c(O)nsc1Nc1cc(F)c(Oc2cc(Cl)ccc2Cl)cc1F (stereo not drawn) [compound 477],1 to 100
8,CC(O)CNC(=N)c1c(O)nsc1Nc1cc(F)c(Oc2cc(Cl)ccc2Cl)cc1F (stereo not drawn) [compound 478],1 to 100
9,COC(=O)c1cccc(Nc2snc(O)c2C(=N)NC(C)C)c1C [compound 479],> 500
10,CCOC(=O)c1ccc(Oc2ccc(Nc3snc(O)c3C(=N)NC(C)C)cc2)cc1 [compound 485],100 to 500
11,CC(C)NC(=N)c1c(O)nsc1Nc1ccc(Oc2ccc(S(C)(=O)=O)cc2)cc1 [compound 486],> 500
12,COC(=O)c1ccccc1Oc1ccc(Nc2snc(O)c2C(=N)NC(C)C)cc1 [compound 487],1 to 100
13,CCOC(=O)c1cccc(Nc2snc(O)c2C(=N)NC(C)C)c1 [compound 488],> 500
14,CCOC(=O)c1cccc(Nc2snc(O)c2C(=N)NC(C)CO)c1 (stereo not drawn) [compound 489],> 500
15,COC(=O)c1cccc(Nc2snc(O)c2C(=N)NC(C)CO)c1C (stereo not drawn) [compound 490],100 to 500
16,CC(CO)NC(=N)c1c(O)nsc1Nc1ccc(Oc2ccc(S(C)(=O)=O)cc2)cc1 (stereo not drawn) [compound 491],> 500
17,Cc1cc(Oc2cccc(C(F)(F)F)c2)ccc1Nc1snc(O)c1C(=N)NC(CO)C(C)C (stereo not drawn) [compound 492],100 to 500
18,COC(=O)c1ccccc1Oc1ccc(Nc2snc(O)c2C(=N)NC(C)CO)cc1 (stereo not drawn) [compound 493],1 to 100
19,CCOC(=O)c1ccccc1Oc1ccc(Nc2snc(O)c2C(=N)NC(C)CO)cc1 (stereo not drawn) [compound 494],1 to 100
20,COC(=O)c1cccc(Nc2snc(O)c2C(=N)NCC(C)O)c1C (stereo not drawn) [compound 495],> 500
21,CCOC(=O)c1cccc(Nc2snc(O)c2C(=N)NCC(C)O)c1 (stereo not drawn) [compound 496],> 500
22,CCOC(=O)c1ccc(Oc2ccc(Nc3snc(O)c3C(=N)NC(C)CO)cc2)cc1 (stereo not drawn) [compound 497],1 to 100
23,CCOC(=O)c1cccc(Nc2snc(O)c2C(=N)NCC(O)O)c1 [compound 498],100 to 500
24,COC(=O)c1cccc(Nc2snc(O)c2C(=N)NCC(O)O)c1C [compound 499],100 to 500

# Continued, values first:
row,IC50 [nM],SMILES
1,1 to 100,Cc1cc(Oc2ccc(F)cc2Cl)ccc1Nc1snc(O)c1C(=N)NC(C)C [compound 401]
2,1 to 100,Cc1cc(Oc2ccc(Cl)cc2F)ccc1Nc1snc(O)c1C(=N)NC(C)C [compound 402]
3,100 to 500,N=C(NCCO)c1c(O)nsc1Nc1ccc(Oc2cc(F)cc(F)c2)cc1 [compound 411]
4,1 to 100,N=C(NCC1CCCO1)c1c(O)nsc1Nc1ccc(Oc2cc(F)cc(F)c2)cc1 (stereo not drawn) [compound 414]
5,1 to 100,N=C(NCc1ccccn1)c1c(O)nsc1Nc1ccc(Oc2cc(F)cc(F)c2)cc1 [compound 415]
6,100 to 500,N=C(NC1CC1)c1c(O)nsc1Nc1ccc(Oc2cc(F)cc(F)c2)cc1 [compound 416]
7,100 to 500,CN(C)CCNC(=N)c1c(O)nsc1Nc1ccc(Oc2cc(F)cc(F)c2)cc1 [compound 418]
8,1 to 100,CC(C)N(O)C(=N)c1c(O)nsc1Nc1ccc(Oc2cc(F)cc(F)c2)cc1 [compound 421]
9,1 to 100,CC(O)CNC(=N)c1c(O)nsc1Nc1ccc(Oc2cc(F)cc(F)c2)cc1 (stereo not drawn) [compound 422]
10,1 to 100,N=C(NCC1CCCCC1)c1c(O)nsc1Nc1ccc(Oc2cc(F)cc(F)c2)cc1 [compound 423]
11,1 to 100,N=C(NCc1ccccc1)c1c(O)nsc1Nc1ccc(Oc2cc(F)cc(F)c2)cc1 [compound 424]
12,1 to 100,N=C(NN1CCCCC1)c1c(O)nsc1Nc1ccc(Oc2cc(F)cc(F)c2)cc1 [compound 435]
13,100 to 500,N=C(NN1CCOCC1)c1c(O)nsc1Nc1ccc(Oc2cc(F)cc(F)c2)cc1 [compound 436]
14,1 to 100,Cc1cc(Oc2cccc(C(F)(F)F)c2)ccc1Nc1snc(O)c1C(=N)NC(C)C [compound 437]
15,1 to 100,Cc1cc(Oc2cccc(C(F)(F)F)c2)ccc1Nc1snc(O)c1C(=N)NC(C)CO (stereo not drawn) [compound 438]
16,1 to 100,Cc1cc(Oc2cc(F)cc(F)c2)ccc1Nc1snc(O)c1C(=N)NC(C)C [compound 457]

row,IC50 [nM],SMILES
1,1 to 100,Cc1cc(Oc2cc(F)cc(F)c2)ccc1Nc1snc(O)c1C(=N)NC(C)CO (stereo not drawn) [compound 458]
2,1 to 100,Cc1cc(Oc2ccc(F)c(F)c2)ccc1Nc1snc(O)c1C(=N)NC(C)C [compound 459]
3,1 to 100,Cc1cc(Oc2cc(Cl)ccc2Cl)ccc1Nc1snc(O)c1C(=N)NC(C)C [compound 460]
4,1 to 100,Cc1cc(Oc2cc(Cl)ccc2Cl)ccc1Nc1snc(O)c1C(=N)NC(C)CO (stereo not drawn) [compound 461]
5,100 to 500,Cc1cc(Oc2ccc(F)cc2Cl)ccc1Nc1snc(O)c1C(=N)N(O)C(C)C [compound 462]
6,1 to 100,Cc1cc(Oc2cccc(F)c2F)ccc1Nc1snc(O)c1C(=N)NC(C)CO (stereo not drawn) [compound 464]
7,100 to 500,Cc1cc(Oc2cc(F)cc(F)c2)ccc1Nc1snc(O)c1C(=N)NO [compound 465]
8,1 to 100,Cc1cc(Oc2cc(F)cc(F)c2)ccc1Nc1snc(O)c1C(=N)NCC(O)CO (stereo not drawn) [compound 466]
9,1 to 100,COCC(C)NC(=N)c1c(O)nsc1Nc1ccc(Oc2cc(F)cc(F)c2)cc1C (stereo not drawn) [compound 467]
10,1 to 100,CCC(CO)NC(=N)c1c(O)nsc1Nc1ccc(Oc2cc(F)cc(F)c2)cc1C (stereo not drawn) [compound 468]
11,1 to 100,CC[C@H](CO)NC(=N)c1c(O)nsc1Nc1ccc(Oc2cc(F)cc(F)c2)cc1C [compound 469]
12,1 to 100,COCCNC(=N)c1c(O)nsc1Nc1ccc(Oc2cc(F)cc(F)c2)cc1C [compound 470]
13,> 500,Cc1cc(Oc2cccc(C(F)(F)F)c2)ccc1Nc1snc(O)c1C(=N)NO [compound 471]
14,1 to 100,Cc1cc(Oc2cccc(C(F)(F)F)c2)ccc1Nc1snc(O)c1C(=N)NCC(O)CO (stereo not drawn) [compound 472]
15,1 to 100,CCC(CO)NC(=N)c1c(O)nsc1Nc1ccc(Oc2cccc(C(F)(F)F)c2)cc1C (stereo not drawn) [compound 473]
16,1 to 100,CC[C@H](CO)NC(=N)c1c(O)nsc1Nc1ccc(Oc2cccc(C(F)(F)F)c2)cc1C [compound 474]

# From patent publication US7652047B2, “Phenylamino isothiazole carboxamidines as MEK inhibitors” (Ardea Biosciences, Inc., priority 2005, dated 2010)
